The results in this text go back to PubChem BioAssay AID449764 (Southern Research Specialized Biocontainment Screening …, 2010).

Molecules are shown by their SMILES.

This test concerns Mycobacterium tuberculosis H37Rv growth inhibition, no glycerol. Nature of the test: Confirmatory growth inhibition assay, Mycobacterium tuberculosis H37Rv, absence of glycerol (AID 449764).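 As to all read-outs here: growth read after 7 days of incubation.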 As to conditions: for IC90: measured here: IC90 growth inhibition.

Regarding `c1ccc(CN2CCC(Nc3nc(-c4ccccc4)nc4ccccc34)CC2)cc1`, the IC50 is 10.9 µM and the IC90 was determined as 16.6 µM.

Take `O=[N+]([O-])c1ncccc1Oc1nc(-c2cccnc2)nc2ccccc12`: the IC50 was 0.82 µM and the IC90 amounted to 3.87 µM.

For `Cc1cc(C(=O)N/N=C\C(Br)=C\c2ccccc2)c(C)o1`, the IC50 was 44.2 µM and the IC90 is 53.6 µM.

In the case of `Cn1cc(NC(=O)CCl)cn1`, the IC50 was 8.55 µM and the IC90 was found to be 16.1 µM.

For the compound `COc1ccc(-c2c(C#N)c(SCC(=O)c3cc4ccccc4oc3=O)nc(C)c2C(=O)Nc2ccccc2)cc1`, the IC50 is 72.3 µM and the IC90 was > 100 µM.

For the compound `Cc1cc(C)cc(-n2c(C)c3c(C)nnc(C)c3c2C)c1`, the IC50 was 61.3 µM and the concentration for an effect of 90% (IC90) was determined as 79.7 µM.

With `O=C(N/N=C(\c1ccccc1)c1ccccn1)c1ccccc1Cl`, the IC50 was 12.1 µM and the IC90 came out at 15.5 µM.

As for `COc1ccc(OC)c(CN2CCN(C(=O)CNC(=O)c3ccc(C(C)(C)C)cc3)CC2)c1`, the half-maximal inhibitory concentration (IC50) was 63.8 µM and the IC90 was 91.1 µM.

In the case of `N/C(=N\NC(=O)c1sccc1OCc1ccc(Cl)cc1Cl)c1ccccn1`, the IC50 is 32.3 µM and the 90% effect concentration (IC90) is 39.4 µM.

`COc1cccc(NC(=O)CNC(=O)Cn2cnc3sc4c(c3c2=O)CCCC4)c1`: the IC50 was 66.7 µM and the IC90 is > 100 µM.

Take `O=C(Cc1ccc(Nc2nc3ccc(Br)cc3[nH]2)cc1)NCCc1cccs1`: the IC50 is 29.6 µM and the IC90 was determined as 37 µM.

`Cc1ccc(Cn2nnnc2CN2CCC(c3nc4ccc(Cl)cc4[nH]3)CC2)cc1`: the IC50 is 31 µM and the IC90 was found to be 40.8 µM.

Consider `C/C(=N\N=C(/N)SC1CC(=O)N(c2ccc(Cl)cc2)C1=O)c1cccs1` (stereo unspecified), for which the IC50 is 32.8 µM and the IC90 was > 100 µM.

Turning to `O=C(Nc1cccc(Cl)c1)N1CCN(C/C=C/c2ccccc2)CC1`, the 50% inhibitory concentration (IC50) was 35 µM and the concentration for an effect of 90% (IC90) amounted to 51.3 µM.

For the compound `CC(C)COCc1ccc(O)c2ncccc12`, the IC50 is 2.18 µM and the IC90 stood at 2.59 µM.

On to `CC1(c2nnc(-c3ccncc3)o2)CC(c2ccccc2)=NO1` (stereo unspecified), for which the IC50 was 68.5 µM and the IC90 is > 100 µM.

On to `COc1ccc(C(=O)OCC(=O)c2ccc(Br)s2)c(OC)c1`, for which the half-inhibitory concentration (IC50) was 73.6 µM and the IC90 was > 100 µM.

For the compound `CN(Cc1ccc(Cl)s1)C(=O)CCl`, the IC50 was 1.54 µM and the IC90 worked out at 1.73 µM.

As for `CCCCN1C(=N)N([C@@H](CCC)CN2CCC[C@H]2CN2C(N)=NC[C@@H]2Cc2ccccc2)C[C@H]1Cc1ccccc1`, the IC50 was 23.9 µM and the IC90 came out at 27.6 µM.

Regarding `CCOC(=O)CCCc1ccc(/C(C)=N/NC(N)=S)cc1`, the IC50 is 8.39 µM and the IC90 stood at 25 µM.

As to `CN(C)c1ccnc2c[cH-]cc12.[Fe].c1ccc(-[c-]2[c-](-c3ccccc3)[c-](-c3ccccc3)[c-](-c3ccccc3)[c-]2-c2ccccc2)cc1` (stereo unspecified), the concentration for half-maximal inhibition (IC50) is 14.3 µM and the IC90 was 19 µM.

Turning to `CC(C)(C)c1csc(NC(=O)c2c(F)c(F)c(F)c(F)c2F)n1`, the IC50 was 21 µM and the concentration for an effect of 90% (IC90) turned out to be 29.4 µM.

In the case of `O=c1oc(-c2cccs2)nc2c1cnn2-c1ccccc1`, the IC90 is > 100 µM.

With `COc1ccc(C(CCN2CCCCC2)c2c(OC)cc(OC)c3c(-c4ccccc4)cc(=O)oc23)cc1` (stereo unspecified), the IC50 is 18.9 µM and the concentration for an effect of 90% (IC90) came to 26.8 µM.

On to `Cc1cc(=O)oc2cc(Oc3ccc([N+](=O)[O-])cc3C(F)(F)F)ccc12`, for which the IC50 was 50 µM and the IC90 is > 100 µM.

With `C/C(=N\Nc1ccc(S(=O)(=O)N2CCCCC2)cn1)c1cccc(Br)c1`, the IC50 is 39.2 µM and the IC90 is > 100 µM.

For `Cc1c(OCc2ccccc2)c(=O)ccn1Cc1ccc(Cl)cc1`, the IC50 was 57.6 µM and the IC90 is 95.9 µM.

On to `Clc1ccc2c(c1)C(c1ccccc1Cl)=NCc1nnc(N3CCN(CCOc4ccccc4)CC3)n1-2`, for which the IC50 is 34.8 µM and the IC90 is 46.1 µM.

Turning to `Cc1ccc2c(c1)nnn2C1CCN(CC(=O)N2CCN(c3ccc(F)cc3)CC2)CC1`, the IC50 was 36.8 µM and the IC90 was 54.7 µM.

Take `Cc1ccc2nc(=O)c(NNc3ccccc3)cnc2c1`: the IC50 was 35.3 µM and the IC90 was > 100 µM.

For the compound `CC(/C=N/n1c(C2CCCCC2)n[nH]c1=S)=C\c1ccccc1`, the IC50 was 80.8 µM and the IC90 was 90.3 µM.

As for `N#Cc1c(SCC(N)=O)nsc1SCc1ccccc1Cl`, the IC50 is 45.8 µM and the IC90 was > 100 µM.

For the compound `C[n+]1c(-c2ccccc2)c2cc(N)ccc2c2ccc(N)cc21`, the IC50 was 16.4 µM and the IC90 turned out to be 20.9 µM.

With `COc1cc2c(C(=O)N3CCN(c4cccc(Cl)c4)CC3)cn(CC(C)C)c(=O)c2cc1OC`, the IC50 was 47.4 µM and the IC90 came to 73.4 µM.

For the compound `CCOC(=O)c1ccc(-n2c(CCC(=O)O)ccc2-c2cccs2)cc1`, the IC50 is 20.8 µM and the IC90 was determined as 23.6 µM.

For `O=C(N/N=C/c1ccc([N+](=O)[O-])o1)c1sc2ccccc2c1Cl`, the 50% inhibitory concentration (IC50) is 5.69 µM and the IC90 is 8.72 µM.

Consider `C=CCc1c(C)nc(SC)nc1Nc1ccc(C(C)=O)cc1`, for which the IC50 was 34.6 µM and the IC90 is 52.4 µM.

For `CCCC(=O)Nc1ccc(C(=O)/C=C/c2ccc(SC)cc2)cc1`, the IC50 was 64.3 µM and the IC90 came to 85.4 µM.

With `CCn1c(=O)c(CCC(=O)N2CCN(c3ccccn3)CC2)c(C)c2c(C)nn(-c3cccc(C)c3)c21`, the IC50 was 21.8 µM and the IC90 was > 100 µM.

For the compound `CN(C)C(=O)C1C2NC(=S)N(c3ccc(Cl)cc3)C1(C)Oc1ccc(Cl)cc12` (stereo unspecified), the IC50 is 31.7 µM and the IC90 turned out to be 55.5 µM.

With `O=C1c2ccccc2S(=O)(=O)c2cc(C(=O)N3CCN(c4c(Cl)cncc4Cl)CC3)ccc21`, the IC50 was 34.8 µM and the IC90 is 52.2 µM.

Regarding `Cc1cc(Nc2cc(Cl)nc(Sc3ccc(NC(=O)C4CC4)cc3)n2)n[nH]1`, the IC50 is 43.2 µM and the IC90 worked out at 59.2 µM.

Turning to `Cc1oc2c(c1C(=O)NCc1cccnc1)C(=O)c1ccccc1C2=O`, the IC50 was 12.3 µM and the IC90 was determined as 14.2 µM.

For the compound `CC1CCCC(NC(=O)NC(=O)CCl)C1C` (stereo unspecified), the IC50 was 8.62 µM and the IC90 was found to be 14.3 µM.

`COC(=O)CSc1ncnc2c1cnn2-c1ccc(C)cc1C`: the IC50 was 6.02 µM and the IC90 came out at 6.82 µM.

For the compound `Cc1nnc(-c2ccccc2)c(=O)n1/N=C/c1c(O)ccc2ccccc12`, the 50% inhibitory concentration (IC50) is 22.1 µM and the IC90 worked out at 24.7 µM.

With `C=C(C)C1Cc2c(C)nn(-c3nc(C)cc(C)n3)c2C1` (stereo unspecified), the half-inhibitory concentration (IC50) is 8.78 µM and the IC90 turned out to be 22.1 µM.

Consider `CN(CC(=O)Nc1ccc(OC(F)(F)F)cc1)C(=O)/C=C/c1cc2c(cc1[N+](=O)[O-])OCO2`, for which the IC50 was 34.5 µM and the IC90 came out at 40.5 µM.

Consider `Cc1cccc(OCC(=O)NNC(=O)c2cc3ccccc3oc2=O)c1`, for which the IC90 is > 100 µM.

For the compound `CNc1nc(SCc2ccccc2Cl)nc2c1CCCC2`, the IC50 is 0.45 µM and the IC90 is 1.21 µM.

Turning to `S=c1nc2ccccc2c2nc(-c3ccccc3)[nH]n12`, the IC50 was 17.6 µM and the IC90 amounted to 24.5 µM.

With `CCOC(=O)CSc1nnc(NC(=O)c2ccc3c(c2)OCO3)s1`, the 50% inhibitory concentration (IC50) is 11.4 µM and the IC90 stood at 20.2 µM.

In the case of `Cc1ccc(N(CCC#N)C(=O)CCl)cc1C`, the 50% inhibitory concentration (IC50) is 5.11 µM and the IC90 worked out at 8.42 µM.

For the compound `CCOc1ccc(-c2cc(CCCC(=O)NCCC(C)C)no2)cc1`, the IC50 was 22.6 µM and the IC90 came out at 25.7 µM.

Take `CN(c1ccccc1)S(=O)(=O)c1cccc(C(=O)NCc2ccccc2CN2CCCC2)c1`: the IC50 was 63.2 µM and the concentration for an effect of 90% (IC90) is 77.9 µM.

For `c1ccc(-c2cn3c(n2)CCc2ccc4cccnc4c2-3)cc1`, the IC50 was 22.4 µM and the concentration for an effect of 90% (IC90) was 25.4 µM.

`CCOC(=O)c1c(NC(=O)CCl)sc(CN(C)C)c1-c1ccccc1`: the IC50 was 2.99 µM and the concentration for an effect of 90% (IC90) is 10.7 µM.

As to `COC(=O)c1ccc(C(=O)OC)c(NC(=O)CSc2cccc[n+]2[O-])c1`, the IC50 was 5.72 µM and the IC90 worked out at 6.25 µM.

Consider `CCOC(=O)CN(C#N)c1nc(N(C)C)nc(N(C)C)n1`, for which the IC50 is 12.8 µM and the IC90 was determined as 14.6 µM.

As to `O=C(CSc1nnnn1-c1ccc2c(c1)OCCO2)OC1CCCCC1`, the IC50 is 22.8 µM and the IC90 worked out at 25.7 µM.

Regarding `CCCOc1cccc(C(=O)NC(=S)Nc2ccc(N3CCN(C)CC3)cc2)c1`, the IC90 is > 100 µM.

With `CCCCCCCCCCOC(=O)Cn1c(COc2ccc(Cl)cc2)[n+](C)c2ccccc21`, the IC50 was 15.8 µM and the IC90 turned out to be 17.5 µM.

Regarding `O=C(Nc1ccc(C2=NCCN2)cc1)c1ccc(Cl)c(C(=O)Nc2ccc(C3=NCCN3)cc2)c1`, the IC50 is 22.7 µM and the IC90 is 25.4 µM.

With `O=C(/C(=C/c1ccc(Cl)cc1)c1nc2ccccc2[nH]1)c1cccs1`, the IC50 was 35.5 µM and the IC90 is 96.8 µM.

For the compound `CCO[C@H]1OC(C(=O)NCc2nc3ccccc3[nH]2)=C[C@@H](c2csc3ccccc23)[C@@H]1CCCO`, the IC50 was 36.5 µM and the IC90 was 49.2 µM.

With `CCCc1cnc(NCCNCC(O)COc2ccc(Cl)c(Cl)c2)nc1` (stereo unspecified), the IC50 is 24.2 µM and the IC90 is 27.7 µM.

On to `O=c1c(Cl)nc2cc(Cl)ccc2n1CCNc1ncc(C(F)(F)F)cc1Cl`, for which the IC50 is 2.97 µM and the IC90 worked out at 3.37 µM.

`O=C(Nc1cc(C(F)(F)F)ccc1Cl)C(Sc1cccc[n+]1[O-])c1ccccc1` (stereo unspecified): the half-inhibitory concentration (IC50) is 43.7 µM and the IC90 turned out to be 48.2 µM.

On to `CC1CCCC(C)N1C(=O)COC(=O)c1cc(-c2cccs2)nn1-c1ccccc1` (stereo unspecified), for which the IC50 was 62.2 µM and the IC90 is 86.3 µM.

As to `CCOC(=O)C(C)Oc1ccc(OCc2ccccc2)cc1` (stereo unspecified), the concentration for half-maximal inhibition (IC50) is 9.95 µM and the IC90 was determined as 14.6 µM.

Regarding `CCOC(=O)CSc1snnc1-c1ccccc1`, the IC50 is 29.4 µM and the IC90 is > 100 µM.

Regarding `Cn1cc(/C=C2\C(=O)NC(=O)N(c3ccccc3)C2=O)c2ccccc21`, the IC50 was 42 µM and the IC90 was > 100 µM.

By IC50 is commonly meant the point on the concentration scale where inhibition reaches its midpoint. One may read the IC90 as the point of the concentration-response curve where the effect stands at 90%. High values mean weaker potency, low ones greater potency.
